Row | melting point [°C] | Structure (SMILES)
1 | 55 | O=C1NC(=O)C(Nc2ccc(CCNC[C@H](O)c3ccccc3)cc2)S1 (stereo partly specified)
2 | 54 to 55 | CCSc1ccc2c(c1)C(=O)Cc1ccccc1N2C
3 | 143 to 145 | CCOC(=O)/C=C/c1c(-c2ccccc2)c2cc(C)c(C)cc2c(=O)n1C
4 | 132 | CN1CCCC(Cn2cc(-c3ccccc3)c(O)n2)C1 (stereo unspecified)
5 | 145 to 147 | CC(=O)NC1CCN(c2cccc(C)n2)CC1
6 | 94 to 97 | CCCc1c(OCCCCCCc2ccc3cc(OCc4ccccc4)c(OCc4ccccc4)cc3c2)ccc(C(=O)OCc2ccccc2)c1O
7 | 188 | CC(C)CCCC(C)CCOc1ccc2c(c1)[nH]c1ccccc12 (stereo unspecified)
8 | 137 to 140 | O=C(O)c1cc(-c2ccc3c(c2)CCO3)nn(CCCc2ccccc2Cl)c1=O
9 | 240 to 241 | Cc1c(-c2cccc(O)c2)sc(C#N)c1-c1ccc(O)cc1
10 | 200 to 202 | CNC1CCN(c2c(F)c(N)c3c(=O)c(C(=O)O)cn(C4CC4)c3c2C)C1 (stereo unspecified)
11 | 140 to 144 | COCCN1CCN(C(=O)c2ccc3n2Cc2ccccc2N(C(=O)c2ccc(-c4ccccc4C(F)(F)F)c(C)c2)C3)CC1
12 | 93 to 94.5 | C=CCNc1nc(NCC=C)nc(N2CCNCC2)n1
13 | 76 to 77 | CC(=O)C1Oc2c(C(C)(C)C)cc(Cl)cc2C1(C)C (stereo unspecified)
14 | 137 to 139 | O=Cc1ccc2c(c1)Sc1ccc(F)cc1C=C2
15 | 123 | CCCN(CCCc1c[nH]c2ccc(F)cc12)C1COc2c(F)ccc(C(=O)NC)c2C1 (stereo unspecified)
16 | 216 to 217 | NC(=O)c1cc2ccccc2cc1O
17 | 215 to 217 | COc1cc(-n2cccn2)ccc1-n1cc(OC)c(=O)c(-c2ccnn2-c2cccc(C(F)(F)F)c2)n1
18 | 186 to 187 | CS(=O)(=O)c1ccccc1-c1cc(F)cc(OCc2ccc3c(-c4ccoc4)cc(C#N)nc3c2)c1
19 | 119 to 121 | FC(F)(F)c1cc(Cl)c(Oc2cc(C3CC3)[nH]n2)c(Cl)c1
20 | 160 to 162 | O=C1CCC(Cc2c[nH]c3ncccc23)N1 (stereo unspecified)
21 | 101 to 103 | Cc1nc(NC(=O)OCC[Si](C)(C)C)cs1
22 | 120 | COc1ccccc1N1CCN(CC(O)COc2cccc3c2CCCC3=O)CC1 (stereo unspecified)
23 | > 300 | N=C(N)c1ccc(-c2ccc(-c3ccc(-c4ccc(C(=N)N)cn4)o3)o2)nc1

Row | melting point [°C] | Structure (SMILES)
24 | 140 to 141 | COc1ccc(C(=O)CBr)cc1C12CC3CC(CC(C3)C1)C2
25 | 233 to 235 | COC(=O)Cn1cnc2c(C)c[nH]c2c1=O
26 | 118 | CC1(C)CCCC=C1c1ccc(C(=O)N2Cc3cccn3Cc3ccccc32)cc1
27 | 164 to 165 | CCc1c(CNc2cccc(N)n2)c(CC)c(CNc2cccc(N)n2)c(CC)c1CNc1cccc(N)n1
28 | 135 to 136 | CCCc1nn(-c2ccc(C(F)(F)F)cn2)cc1CCCOc1ccc(OC)c(CC(=O)O)c1
29 | 209 to 211 | CCCCOc1ccccc1Nc1ncc(C(=O)OCC)c(=O)[nH]1
30 | 159 to 160 | CCCc1nc2c(N)nc(C)c(C)c2n1CCCCN(O)C(=O)Nc1ccccc1
31 | 146 to 148 | CN(C)S(=O)(=O)c1c(S(N)(=O)=O)ccn1C
32 | 92 to 93 | CCCCCCC(=NO)C(=O)c1ccc(OC)c2ccccc12
33 | > 133 | COC(=O)[C@@]12CO[C@@H](C(C)(C)C)N1C(=O)[C@](Cc1ccccc1)(C(=O)O)C2
34 | 122 to 124 | COC(=O)COc1ccc(SCc2ccc(-c3ccc(C(F)(F)F)cc3)cc2)c2c1CCCO2
35 | 163 to 164 | CC1(C)C=C(C(=O)NCCC#N)c2cc(C(F)(F)C(F)(F)F)ccc2O1
36 | 145 to 147 | CCS(=O)(=O)c1ccc(C(=O)NCc2ccc3c(c2)C(=O)N(C2(C)CCC(=O)NC2=O)C3=O)nc1 (stereo unspecified)
37 | 79 to 82 | CCC(=C(c1ccccc1)c1ccc(OCC2CO2)cc1)C1CCCC1 (stereo unspecified)
38 | 224 to 225 | CNC(=O)c1ccc(C=CC(=O)NCC(=O)N(C)c2ccc(C)c(COc3cccc4c3nc(SC)n4C)c2C)cc1
39 | 104 to 106 | Cc1ccccc1C1CC(=O)c2c(C)ccnc2C1 (stereo unspecified)
40 | 120 to 122 | O=C(O)c1nc(N2CCCC2)ccc1OCc1ccccc1
41 | 81 to 82 | C=C(C)C(=O)OCCOc1ccc(/C=C/C(=O)OC)cc1
42 | 124 to 128 | CSC1C(=O)Nc2ccc(Oc3ccccc3)cc21 (stereo unspecified)
43 | 212 to 214 | COc1ccc(C=C(NC(C)=O)C(=O)O)cc1OC
44 | 157 to 159 | CC(Oc1ccc(Oc2ccc3ccc(Br)cc3n2)cc1)C(=O)NCC(=O)O (stereo unspecified)
45 | 205 to 207 | O=C(O)CNCCOc1cccc(CCNS(=O)(=O)c2ccc(Cl)cc2)c1
46 | 263 to 264 | Cc1ccc(S(=O)(=O)N2CCC(S(=O)(=O)c3ccc(Cl)cc3)CC2)cc1

Row | melting point [°C] | Structure (SMILES)
47 | 256 to 257 | Cc1cnc(N2CCC(c3ccc(S(N)(=O)=O)cc3)CC2)n1C
48 | 220 to 222 | O=C1NCCc2c(-c3cccs3)[nH]c3cccc1c23
49 | 132 to 133 | CCOC(=O)C(C)=C(CC)NC(=O)Nc1cc(C(=O)OC(C)C)c(Cl)cc1F
50 | 106 to 108 | NCCCCNC(=O)C(=O)NCCCCN
51 | 192 to 195 | COc1ccc(S(=O)(=O)C2(C(=O)NO)CCN(Cc3ccc(Cl)c(Cl)c3)CC2)cc1
52 | 84 to 85 | CC(C)(C)OC(=O)N(C(=O)OC(C)(C)C)c1cc(-c2ccc(N)cc2)n(C(=O)OC(C)(C)C)n1
53 | 320 to 321 | Cc1cnc2[nH]cc(/C=C3\N=C(N4CCCCC4)NC3=O)c2c1
54 | 145 | CC(C)(C)OC(=O)CN(C(=O)CN1C(=O)c2ccccc2C1=O)c1ccccc1-c1ccccc1
55 | 237 to 239 | O=C(O)Cc1ccc2c(c1)NC(=O)CO2
56 | 198 to 201 | CN1c2ccccc2CN(C(=O)c2ccc(-c3ccccc3)cc2)c2ccccc21
57 | 71 to 72 | CC(C)C[C@H]1C[C@]2(O)C[C@@H](OC2=O)[C@@H]1OC(=O)c1ccccc1
58 | 64 to 68 | CCCCCCCCCCCCCCCCCCOc1ccc2ccccc2c1
59 | 225 | O=C1O[C@@H](Cn2ccnn2)CN1c1ccc(-c2ccc(C3=NOC(C4(O)CCCC4)C3)nc2)c(F)c1 (stereo partly specified)
60 | 116 to 120 | CCOC(=O)C1CNC(=O)CC1c1ccc(F)cc1 (stereo unspecified)
61 | 260 | O=C(Nc1cccc(Br)c1)Oc1ccc2ncccc2c1
62 | 200 to 203 | O=S1(=O)NC(C2CCCCC2)=Nc2cccc(-c3ccccn3)c21
63 | 216 to 218 | NCC(=O)NCc1cc(=O)c(O)co1
64 | 53 to 55 | COc1ccc(CSC2CC(=O)N2CC(=O)NCCCCCCc2ccc(F)cc2)cc1 (stereo unspecified)
65 | 53 to 54 | CC1(C)CCCC2(C)CC(O)CCC12 (stereo unspecified)
66 | 216 | CC1(C2CCCC2)Cc2cc(OCC(=O)NC(=N)N)c(Cl)c(Cl)c2C1=O (stereo unspecified)
67 | 280 | O=C(Nc1nccs1)c1c(CO)nc2c(C(F)(F)F)cccc2c1O
68 | 180 to 181 | Cc1oc(-c2ccccc2)nc1COc1ccc(CCc2oc(-c3ccccc3)nc2CC(=O)O)cc1
69 | 110 | N#Cc1c(OCCN2CCOCC2)cccc1Oc1ccc(-c2cn(C3CCOCC3)c3ncnc(N)c23)cc1

Row | melting point [°C] | Structure (SMILES)
70 | 60 | COc1ccc2nccc(CCC[C@@H]3CCN(CCC(F)c4ccccc4)C[C@@H]3C(=O)O)c2c1 (stereo partly specified)
71 | 166 | O=C(Nc1ccc2cc(CN3CCCC3)cnc2c1)c1ccc(-c2ccccc2)cc1F
72 | 230 to 245 | O=C(NCc1ccc(Cl)cc1)c1cc2c(O)c(C(=O)NCc3ccc(Cl)cc3)cnc2o1
73 | 147 | Cc1c(F)cccc1Cc1c(-c2ccccc2)c2ccccn2c1C(=O)N1CCN[C@@H](CC(=O)NCC2CCOCC2)C1
74 | > 265 | CN1C(=O)CC[C@]2(C)c3ccc(-c4cc(C(C)(C)C)c(O)c(C(C)(C)C)c4)cc3CC[C@@H]12
75 | 136 | CC(c1cc(F)cc(Br)c1O)c1cc(Cl)cc(C(C)c2cc(F)cc(Br)c2O)c1O (stereo unspecified)
76 | 95 to 96 | CN(CCOc1ccc([N+](=O)[O-])cc1F)c1ccccn1
77 | 97 to 100 | O=C(NOc1ccc([N+](=O)[O-])cc1)OCCCNC(=O)OC1CCN(C(=O)Oc2ccc(Oc3ccccc3)cc2)CC1
78 | 88 to 89 | CC1CCN(c2cc(F)cc(C(=O)Nc3ccc(Oc4ccnc(N5CCOCC5)n4)c4ccccc34)c2)CC1
79 | 192 to 193 | COc1ccc(-n2nc(C#N)cc2-c2ccc(S(C)(=O)=O)cc2)cc1F
80 | 60 | C=C(CC(=O)Nc1cc(Cl)cc(Cl)c1)C(=O)OCCCCCC
81 | 119 to 122 | CCc1nc2c(cnn2CC)c(NC2CCOCC2)c1CNC(=O)c1cccc(C(=O)NCc2cc(Cl)cc(-c3cccc(CN4CCNCC4)c3)c2)c1
82 | 34 | Fc1ccc(-c2cccc(F)n2)cc1
83 | > 215 | Cc1ccc(Cl)c(Nc2ccccc2-c2nnc(NC#N)o2)c1Cl
84 | 325 | Cc1cccc2[nH]c(=O)c(=O)[nH]c12
85 | 159 to 161 | Cn1nnc(Cc2ccc(NC(=O)/C=C/c3cnn(C)c3-c3ccc(F)cc3)cc2)n1
86 | 172 to 174 | CC(=O)Nc1nc(C)c(CCCl)s1
87 | 62 to 63.9 | O=C(O)CC1(CCCCCCCCCCC2(C(=O)O)CC2)CCC1
88 | 151 | Cn1cncc1C(CC#N)(c1ccc(Cl)cc1)c1ccc2c(c1)c(-c1cccc(Cl)c1)cc(=O)n2C (stereo unspecified)
89 | 224 to 226 | COc1ccc(C2(O)CC=C(c3ccncc3)N(C)C2=O)cc1 (stereo unspecified)
90 | 157 to 158 | Oc1nsc2c1CCCC2

Row | Structure (SMILES) | melting point [°C]
91 | CC(C)N1Cc2cc(O)ccc2N(CCN2CC=C(c3c[nH]c4cc(F)ccc34)CC2)S1(=O)=O | 80 to 82
92 | COc1cc(C2C3=C(COC3=O)N(C)c3cc4c(cc32)OCO4)cc(OC)c1OC (stereo unspecified) | 226
93 | C=CCN1C2CCC3C1CCC2N3C(c1ccc(C(=O)N(CC)CC)cc1)c1cccc(O)c1 (stereo unspecified) | 147 to 150
94 | CCC1C(C)=NN=C(c2ccc(O)c(OC)c2)c2cc(O)c(O)cc21 (stereo unspecified) | 252 to 253
95 | CN1Cc2c(I)ncn2-c2ccc(F)c(Cl)c2C1=O | 218 to 219
96 | CCOC(=O)C1(C(=O)OCC)CCC2(NCCc3cc(OC)c(OC)cc32)C(C2=NCCc3cc(OC)c(OC)cc32)C1 (stereo unspecified) | 116 to 118
